Patent US5401490A, “Markers of tissue hypoxia” (priority 1989, dated 1995)

Tested on: BALB/C mice bearing subcutaneous EMT-6 tumors
Assay: Tissue distribution of radioactivity after intravenous injection
Assay type: in vivo
Details: for Tissue to Blood Ratio, Bone / Tissue to Blood Ratio, Carcass / Tissue to Blood Ratio, Heart / Tissue to Blood Ratio, Intestine / Tissue to Blood Ratio, Kidney / Tissue to Blood Ratio, Liver / Tissue to Blood Ratio, Lung / Tissue to Blood Ratio, Muscle / Tissue to Blood Ratio, Spleen / Tissue to Blood Ratio, Stomach / Tissue to Blood Ratio, Tumor: i.v.; for deiodination (increase in thyroid radioactivity): longer periods (>4 h)
Description: Tables 1 and 2 show the percent of injected IAZG and IAZA respectively per gram of wet tissue for selected tissues excised from BALB/C mice bearing EMT-6 tumors. This tumor model is known to have a high hypoxic fraction (0.33) (16). […] Hepatobiliary excretion may play a role in blood clearance as evidenced by elevated liver radioactivity and the appearance of activity in the intestine. Some oxidative or reductive metabolites of the 2-nitroimidazoles may also become bound to liver tissue, as was postulated in an in vivo study with ^14 C-MISO (6). This supposition is supported by the persistence of liver radioactivity at longer time periods. […] At 8 and 24 hours thyroid levels of IAZG are 7.2 and 30.9% of the total body activity and for IAZA they are 7.9 and 33.8% of total body activity. EXAMPLE 11 TISSUE DISTRIBUTION AND EXCRETION Tumor propagation of EMT-6 tumors in BALB/C mice was accomplished by subcutaneous injection of a cell suspension (10^5 cells in 0.1 mL) as described previously (10). Tumors reached about 10 mm in diameter (≈0.5 g) at 12 to 14 days, at which time each animal was given a bolus intravenous injection of ^125 I-labelled test drug via the tail vein (40 to 60 kBq in 0.1 mL). At set time periods the animals were asphyxiated with CO2 and exsanguinated via cardiac puncture. Tissues were dissected, weighed wet into vials and counted for ^125 I-activity. Whole-body activity was determined by summation of total activity in tissues and in residual carcass, and blood activity was determined from the blood aliquot, assuming blood to be 6.5% of the total body weight. EXAMPLE 12 Male BALB/c mice (20-25 g) were inoculated subcutaneously in the left flank with a suspension of murine EMT-6 cells (10^5 cells in 0.1 mL) (14). After 12 to 14 days, when the tumors reached the desired size (8-10 mm diameter), each mouse received a single intravenous (iv) injection of ^125 I-IAZA (59 kBq in 0.1 mL). […] Heart, lung, liver, spleen, muscle, bone, thyroid, kidney, stomach, small intestine, tail, tumor and skin were removed upon necropsy, weighed and analyzed for ^125 I using a Beckman Model 8000 gamma scintillation counter. The remaining carcass mass was also weighed and radioassayed.

SMILES: O=[N+]([O-])c1nccn1[C@@H]1O[C@H](CI)[C@@H](O)[C@@H]1O [IAZA, 1-(5-iodo-5-deoxy-β-D-arabino-furanosyl)-2-nitroimidazole]
- Tissue to Blood Ratio, Bone (0.25 h): 0.50
- Tissue to Blood Ratio, Carcass (0.25 h): 1.02
- Tissue to Blood Ratio, Heart (0.25 h): 1.78
- Tissue to Blood Ratio, Intestine (0.25 h): 2.06
- Tissue to Blood Ratio, Kidney (0.25 h): 2.49
- Tissue to Blood Ratio, Liver (0.25 h): 3.29
- Tissue to Blood Ratio, Lung (0.25 h): 1.75
- Tissue to Blood Ratio, Muscle (0.25 h): 1.17
- Tissue to Blood Ratio, Spleen (0.25 h): 1.36
- Tissue to Blood Ratio, Stomach (0.25 h): 1.66
- Tissue to Blood Ratio, Tumor (0.25 h): 0.97
- Tissue to Blood Ratio, Bone (0.50 h): 0.63
- Tissue to Blood Ratio, Carcass (0.50 h): 1.18
- Tissue to Blood Ratio, Heart (0.50 h): 1.64
- Tissue to Blood Ratio, Intestine (0.50 h): 2.04
- Tissue to Blood Ratio, Kidney (0.50 h): 2.61
- Tissue to Blood Ratio, Liver (0.50 h): 3.29
- Tissue to Blood Ratio, Lung (0.50 h): 1.74
- Tissue to Blood Ratio, Muscle (0.50 h): 1.28
- Tissue to Blood Ratio, Spleen (0.50 h): 1.38
- Tissue to Blood Ratio, Stomach (0.50 h): 2.19
- Tissue to Blood Ratio, Tumor (0.50 h): 1.60
- Tissue to Blood Ratio, Bone (1 h): 0.63
- Tissue to Blood Ratio, Carcass (1 h): 1.21
- Tissue to Blood Ratio, Heart (1 h): 1.51
- Tissue to Blood Ratio, Intestine (1 h): 2.52
- Tissue to Blood Ratio, Kidney (1 h): 2.38
- Tissue to Blood Ratio, Liver (1 h): 3.06
- Tissue to Blood Ratio, Lung (1 h): 1.63
- Tissue to Blood Ratio, Muscle (1 h): 1.19
- Tissue to Blood Ratio, Spleen (1 h): 1.35
- Tissue to Blood Ratio, Stomach (1 h): 2.15
- Tissue to Blood Ratio, Tumor (1 h): 1.46
- Tissue to Blood Ratio, Bone (2 h): 0.64
- Tissue to Blood Ratio, Carcass (2 h): 1.60
- Tissue to Blood Ratio, Heart (2 h): 1.13
- Tissue to Blood Ratio, Intestine (2 h): 1.90
- Tissue to Blood Ratio, Kidney (2 h): 1.98
- Tissue to Blood Ratio, Liver (2 h): 2.39
- Tissue to Blood Ratio, Lung (2 h): 1.26
- Tissue to Blood Ratio, Muscle (2 h): 0.75
- Tissue to Blood Ratio, Spleen (2 h): 1.02
- Tissue to Blood Ratio, Stomach (2 h): 3.62
- Tissue to Blood Ratio, Tumor (2 h): 2.80
- Tissue to Blood Ratio, Bone (4 h): 0.60
- Tissue to Blood Ratio, Carcass (4 h): 1.98
- Tissue to Blood Ratio, Heart (4 h): 0.71
- Tissue to Blood Ratio, Intestine (4 h): 1.80
- Tissue to Blood Ratio, Kidney (4 h): 1.46
- Tissue to Blood Ratio, Liver (4 h): 2.11
- Tissue to Blood Ratio, Lung (4 h): 1.00
- Tissue to Blood Ratio, Muscle (4 h): 0.53
- Tissue to Blood Ratio, Spleen (4 h): 0.78
- Tissue to Blood Ratio, Stomach (4 h): 4.02
- Tissue to Blood Ratio, Tumor (4 h): 4.62
- Tissue to Blood Ratio, Bone (8 h): 0.57
- Tissue to Blood Ratio, Carcass (8 h): 2.00
- Tissue to Blood Ratio, Heart (8 h): 1.57
- Tissue to Blood Ratio, Intestine (8 h): 5.50
- Tissue to Blood Ratio, Kidney (8 h): 2.43
- Tissue to Blood Ratio, Liver (8 h): 3.36
- Tissue to Blood Ratio, Lung (8 h): 2.36
- Tissue to Blood Ratio, Muscle (8 h): 2.57
- Tissue to Blood Ratio, Spleen (8 h): 1.29
- Tissue to Blood Ratio, Stomach (8 h): 6.21
- Tissue to Blood Ratio, Tumor (8 h): 8.71
- thyroid levels (8 hours): 7.9 % of the total body activity
- Tissue to Blood Ratio, Bone (24 h): 0.59
- Tissue to Blood Ratio, Carcass (24 h): 1.03
- Tissue to Blood Ratio, Heart (24 h): 1.14
- Tissue to Blood Ratio, Intestine (24 h): 1.11
- Tissue to Blood Ratio, Kidney (24 h): 1.41
- Tissue to Blood Ratio, Liver (24 h): 2.64
- Tissue to Blood Ratio, Lung (24 h): 1.00
- Tissue to Blood Ratio, Muscle (24 h): 0.54
- Tissue to Blood Ratio, Spleen (24 h): 0.97
- Tissue to Blood Ratio, Stomach (24 h): 1.81
- Tissue to Blood Ratio, Tumor (24 h): 5.56
- thyroid levels (24 hours): 33.8 % of the total body activity
- injected dose in tumor at maximum tumor to blood ratio (at 8 h): 1.22 % of the injected dose
- maximum tumor to blood ratio (at 8 h): 8.7
- tumor to blood ratio (text, FIG. 7) (at 24 h): > 5.5
- uptake in EMT-6 tumor tissue (in words): taken up preferentially in EMT-6 tumor tissue
- deiodination (increase in thyroid radioactivity): evidence of deiodination at longer periods (>4 h)

SMILES: O=[N+]([O-])c1nccn1[C@@H]1O[C@H](CI)[C@H](O)[C@H](O)[C@H]1O [IAZG, 1-(6-iodo-6-deoxy-β-D-galactopyranosyl)-2-nitroimidazole]
- Tissue to Blood Ratio, Intestine (0.25 h): 3.65
- Tissue to Blood Ratio, Kidney (0.25 h): 8.58
- Tissue to Blood Ratio, Liver (0.25 h): 3.00
- Tissue to Blood Ratio, Lung (0.25 h): 1.51
- Tissue to Blood Ratio, Muscle (0.25 h): 0.72
- Tissue to Blood Ratio, Stomach (0.25 h): 1.79
- Tissue to Blood Ratio, Tumor (0.25 h): 0.95
- Tissue to Blood Ratio, Intestine (0.50 h): 3.19
- Tissue to Blood Ratio, Kidney (0.50 h): 8.07
- Tissue to Blood Ratio, Liver (0.50 h): 2.66
- Tissue to Blood Ratio, Lung (0.50 h): 1.31
- Tissue to Blood Ratio, Muscle (0.50 h): 0.63
- Tissue to Blood Ratio, Stomach (0.50 h): 1.92
- Tissue to Blood Ratio, Tumor (0.50 h): 1.31
- Tissue to Blood Ratio, Intestine (1 h): 1.42
- Tissue to Blood Ratio, Kidney (1 h): 5.56
- Tissue to Blood Ratio, Liver (1 h): 1.82
- Tissue to Blood Ratio, Lung (1 h): 0.90
- Tissue to Blood Ratio, Muscle (1 h): 0.48
- Tissue to Blood Ratio, Stomach (1 h): 1.64
- Tissue to Blood Ratio, Tumor (1 h): 1.47
- Tissue to Blood Ratio, Intestine (2 h): 1.48
- Tissue to Blood Ratio, Kidney (2 h): 5.06
- Tissue to Blood Ratio, Liver (2 h): 2.55
- Tissue to Blood Ratio, Lung (2 h): 1.13
- Tissue to Blood Ratio, Muscle (2 h): 0.62
- Tissue to Blood Ratio, Stomach (2 h): 2.61
- Tissue to Blood Ratio, Tumor (2 h): 1.45
- Tissue to Blood Ratio, Intestine (4 h): 1.04
- Tissue to Blood Ratio, Kidney (4 h): 4.00
- Tissue to Blood Ratio, Liver (4 h): 1.51
- Tissue to Blood Ratio, Lung (4 h): 1.16
- Tissue to Blood Ratio, Muscle (4 h): 0.49
- Tissue to Blood Ratio, Stomach (4 h): 1.85
- Tissue to Blood Ratio, Tumor (4 h): 1.56
- Tissue to Blood Ratio, Intestine (8 h): 1.05
- Tissue to Blood Ratio, Kidney (8 h): 2.47
- Tissue to Blood Ratio, Liver (8 h): 1.24
- Tissue to Blood Ratio, Lung (8 h): 0.98
- Tissue to Blood Ratio, Muscle (8 h): 0.36
- Tissue to Blood Ratio, Stomach (8 h): 2.50
- Tissue to Blood Ratio, Tumor (8 h): 1.34
- thyroid levels (8 hours): 7.2 % of the total body activity
- Tissue to Blood Ratio, Intestine (24 h): 0.83
- Tissue to Blood Ratio, Kidney (24 h): 1.52
- Tissue to Blood Ratio, Liver (24 h): 1.32
- Tissue to Blood Ratio, Lung (24 h): 1.26
- Tissue to Blood Ratio, Muscle (24 h): 0.38
- Tissue to Blood Ratio, Stomach (24 h): 0.87
- Tissue to Blood Ratio, Tumor (24 h): 1.41
- thyroid levels (24 hours): 30.9 % of the total body activity
- injected dose in tumor at maximal tumor to blood ratio (at 4 h): 0.23 % of the injected dose
- maximal tumor to blood ratio (at 4 h): 1.56
- deiodination (increase in thyroid radioactivity): evidence of deiodination at longer periods (>4 h)
